Results as given in patent US9572862B2, “Methods for promoting lipolysis and oxidation in liver and adipose tissue using catestatin” (The Regents of the University of California, priority 2012, dated 2017).
“Also recorded” adds a separate entry of the source. No end group written: not given here.

Columns and labels:
HFD-fed CST-KO mice = test: CST supplementation in HFD-fed CST-KO mice; assay type: in vivo
Excerpt: FIG. 12. Metabolic phenotypes in HFD-fed CST-KO mice. (A) CST-KO mice eat more 60% HFD than WT. (B) CST-KO mice gained more weight than WT. (C) Heightened glucose resistance at baseline in CST-KO mice compared to WT mice. […] Figures in parentheses indicate number of animals.

3T3-L1 adipocytes = test: Leptin in adipocyte culture media after CST; assay type: cell-based; conditions: cultured 3T3-L1 adipocytes
Experimental: FIG. 1. Plasma parameters of wild-type (WT) and Chga-KO mice treated with saline or CST. (A) Plasma CST from saline or CST (5 μg/g BW, i.p./day) treated WT mice (28 week old) on normal chow (NCD) and high fat diet (60% fat for 16 weeks) as well as from Chga-KO mice (28 week old) on NCD. Body weights (B) and epididymal fat pad size normalized to body weight (C) in 28 week old WT and Chga-KO mice treated with saline or CST for 12 days. Plasma triglyceride (TG) (D), glycerol (E), non-esterified fatty acids (NEFA) (F), and leptin (G) in 28 week old WT and Chga-KO mice after treatment with saline or CST for 12 days. (H) Leptin in adipocyte culture media after treatment with saline or CST.
Mice were fasted for 12 hr prior to blood draw. Triglycerides (TG) and non-esterified fatty acids (NEFA) were assayed using kits from Wako Diagnostics (Richmond, Va.). Glycerol was assayed using a kit from Sigma (St Louis, Mo.). Media from the explant cultures and mouse serum were analysed for glycerol and NEFA as a measure of lipolysis. […]
Oxidation of radiolabeled palmitate in the homogenates of adipose tissue explants as described previously (45). […] Fatty acid oxidation in cells was determined by modifying a published method (46). […] The filter discs were counted to determine the amount of ^14CO2 absorbed in the papers. […]

DIO mice = test: CST administration to DIO mice for 16 days; assay type: in vivo
Experimental: FIG. 7. Effects of CST administration to DIO and Ob/Ob mice on food intake, body weight, adipose tissue weight, and lipolysis. CST (5 μg/g BW, i.p./day) or saline was administered to DIO and Ob/Ob mice for 16 days. Food intake for DIO mice (A) and Ob/Ob mice (B) was measured every other day. Percent changes in final body weight and WAT mass (as % of body weight) were determined for DIO (C) and Ob/Ob (D) mice. Plasma glycerol (E) and NEFA (F) were quantified for DIO and Ob/Ob mice at the end of CST treatment.
Adult male (7 month old) WT (31.8±1.2 g) and Chga-KO (39.2±1.5 g) mice in the mixed genetic background (129SvJ×C57BL/6) were studied. Both genotypes were generated from the original founder carrying mixed genotype (50% 129SvJ, 50% C57BL/6) and were maintained by sibling mating. Animals were kept in a 12 hr dark/light cycle and fed standard chow ad libitum. Male C57BL/6 mice, 8 week old, were fed 60% high fat diet (D12492: Research Diets, Inc., New Brunswick) for 16 weeks before using for experiments. Male leptin-deficient (C57BL/6J-Ob/Ob) mice from the Jackson Laboratory were maintained on a standard chow diet. The Institutional Animal Care and Utilization Committee approved all procedures. Chga-KO, DIO and Ob/Ob mice were treated daily with saline or CST (5 μg/g BW, i.p.; 12 days for Chga-KO mice and 16 days for DIO and Ob/Ob mice).
Mice were fasted for 12 hr prior to blood draw. Triglycerides (TG) and non-esterified fatty acids (NEFA) were assayed using kits from Wako Diagnostics (Richmond, Va.). Glycerol was assayed using a kit from Sigma (St Louis, Mo.). Media from the explant cultures and mouse serum were analysed for glycerol and NEFA as a measure of lipolysis. ELISA kits were used to determine plasma levels of leptin, adiponectin (Millipore, Billerica, Mass.) and CST (Bachem, Torrance, Calif.). For CST assay, plasma samples and reference standards were passed through mini C18 columns and the flow-through fractions were assayed. The same kits were used for measurements in culture media.

SSMKLSFRARAYGFRGPGPQL [CST]
basal plasma insulin level (HFD-fed CST-KO mice): decreased; also recorded: reduced hyperinsulinemia | insulin sensitivity (IP-ITT) (HFD-fed CST-KO mice; CST 5 μg/g BW): improved insulin sensitivity; also recorded: reversed glucose resistance to glucose tolerance | leptin production / release (3T3-L1 adipocytes): inhibited leptin production; also recorded: inhibited leptin release | food intake (DIO mice; CST 5 μg/g BW i.p./day 16 days): did not change | decrease in adipose tissue mass (DIO mice; CST 16 days): about 2 g | plasma concentration of NEFA (lipolysis) (DIO mice; CST 16 days): increased | plasma concentration of glycerol (lipolysis) (DIO mice; CST 16 days): increased
